Key:
[1] = test system: MMP3; assay: DNA microarray gene expression, MMP3; assay type: cell-based
From the text: (§1) In light of the efficacy of the aryl alkanones ire addressing many of the molecular/biomolecular processes damaged by UV exposure, a study was undertaken to assess whether these compounds would also be effective in addressing symptoms associated with non-UV induced skin aging including chronological aging as well as disease conditions that likewise adversely affect skin processes. The studies conducted involves DNA microarray, PCR array, cell culture, enzyme inhibitory activity.

[2] = test system: TIMP3; assay: PCR array gene expression, TIMP3; assay type: cell-based
From the text: as §1

[3] = test system: FBLN1; assay: DNA microarray gene expression, FBLN1; assay type: cell-based
From the text: as §1

[4] = biological target: iNOS (Homo sapiens, UniProt P35228); assay: Reduction of iNOS activity; assay type: biochemical
Sequence of iNOS (P35228 whole entry, species assumed): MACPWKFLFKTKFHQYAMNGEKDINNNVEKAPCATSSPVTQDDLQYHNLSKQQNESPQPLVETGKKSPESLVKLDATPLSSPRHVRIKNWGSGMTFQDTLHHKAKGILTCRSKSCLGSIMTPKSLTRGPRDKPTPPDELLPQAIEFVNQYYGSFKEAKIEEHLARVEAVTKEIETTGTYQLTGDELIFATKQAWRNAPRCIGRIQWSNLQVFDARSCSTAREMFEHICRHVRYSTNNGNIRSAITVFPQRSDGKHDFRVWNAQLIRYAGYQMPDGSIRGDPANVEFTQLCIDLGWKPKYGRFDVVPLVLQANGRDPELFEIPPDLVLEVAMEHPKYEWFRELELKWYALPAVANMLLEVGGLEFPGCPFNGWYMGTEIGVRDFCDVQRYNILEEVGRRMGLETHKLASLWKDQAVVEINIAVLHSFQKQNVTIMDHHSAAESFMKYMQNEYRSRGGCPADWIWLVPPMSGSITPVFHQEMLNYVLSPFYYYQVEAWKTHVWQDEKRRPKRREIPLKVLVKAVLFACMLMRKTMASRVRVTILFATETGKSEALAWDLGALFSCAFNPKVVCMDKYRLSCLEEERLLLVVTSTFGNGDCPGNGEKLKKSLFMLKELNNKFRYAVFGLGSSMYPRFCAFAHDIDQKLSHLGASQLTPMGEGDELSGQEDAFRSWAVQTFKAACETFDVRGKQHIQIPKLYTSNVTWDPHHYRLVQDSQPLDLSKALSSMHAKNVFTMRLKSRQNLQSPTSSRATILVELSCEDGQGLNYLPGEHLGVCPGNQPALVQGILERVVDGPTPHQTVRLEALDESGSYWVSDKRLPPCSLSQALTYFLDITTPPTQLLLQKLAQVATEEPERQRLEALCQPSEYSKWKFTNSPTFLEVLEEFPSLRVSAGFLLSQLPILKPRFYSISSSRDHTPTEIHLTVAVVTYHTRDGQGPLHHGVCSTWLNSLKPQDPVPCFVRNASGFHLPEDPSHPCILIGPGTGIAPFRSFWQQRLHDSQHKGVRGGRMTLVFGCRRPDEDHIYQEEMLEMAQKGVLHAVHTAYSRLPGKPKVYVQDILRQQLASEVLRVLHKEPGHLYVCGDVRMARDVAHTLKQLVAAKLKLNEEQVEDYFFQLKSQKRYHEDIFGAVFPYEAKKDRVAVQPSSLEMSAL
From the text: Accordingly, an investigation was undertaken to assess the efficacy of compounds according to the present teaching as compared to compounds that are closely structurally related thereto in inhibiting NO product.

[5] = test system: COL6A3; assay: DNA microarray gene expression, COL6A3; assay type: cell-based
From the text: as §1

[6] = test system: COL14A1; assay: PCR array gene expression, COL14A1; assay type: cell-based
From the text: as §1

[7] = test system: LAMA4; assay: DNA microarray gene expression, LAMA4; assay type: cell-based
From the text: as §1

[8] = test system: ELN; assay: DNA microarray gene expression, ELN; assay type: cell-based
From the text: as §1

[9] = biological target: T1, MMP-3 enzyme (Homo sapiens, UniProt P08254); assay: MMP-3 inhibition; assay type: biochemical; settings: read-out: Inhibitory concentration (IC50), MMP-3
T1 construct: purchased Anaspec
T1 sequence (P08254 100-477, species assumed): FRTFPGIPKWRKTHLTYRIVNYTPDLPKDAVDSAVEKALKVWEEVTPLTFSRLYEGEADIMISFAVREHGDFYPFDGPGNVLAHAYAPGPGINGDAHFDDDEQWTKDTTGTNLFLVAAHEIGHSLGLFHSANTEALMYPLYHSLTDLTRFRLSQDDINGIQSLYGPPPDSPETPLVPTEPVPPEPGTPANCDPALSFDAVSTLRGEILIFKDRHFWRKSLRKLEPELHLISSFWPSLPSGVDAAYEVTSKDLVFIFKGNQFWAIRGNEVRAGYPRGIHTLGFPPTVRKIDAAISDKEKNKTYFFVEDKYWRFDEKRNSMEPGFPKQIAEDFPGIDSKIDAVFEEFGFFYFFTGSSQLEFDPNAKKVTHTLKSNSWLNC
Protocol: Another study was conducted in which the elastin and MMP activity of Compound 1 was evaluated. The methodology for the study of MMP-1 and MMP-3 activity was as follows: • A 0.1 g sample of Compound 1 was dissolved in 1 ml DMSO, then it was diluted 100× with Tris buffer (50 mM Iris pH 7.5, 150 mM NaCl, 2 mM CaCl2, 5μ ZnO4, 0.01% Brij-35) to make a stock solution. For the analysis, different concentrations of Compound 1 were used to determine the IC50. The sample and 100 ng/ml MMP-1 enzyme (Anaspec) or MMP-3 enzyme (Anaspec) were incubated at 37° C. for 10 minutes before the addition of 2.25 μM PEPDAB008 substrate (Biozyme). The fluorescence signal was monitored at excitation of 485 nm and emission of 530 nm.

[10] = test system: COL3A1; assay: DNA microarray gene expression, COL3A1; assay type: cell-based
From the text: as §1

[11] = test system: COL5A1; assay: DNA microarray gene expression, COL5A1; assay type: cell-based
From the text: as §1

[12] = test system: Fibroblasts; assay: UVA-induced delayed formation of CPDs (dCPDs) in fibroblasts; assay type: cell-based; settings: 25 μg/ml, product incubated for 24 hrs. plus UVA irradiation
Protocol: (§2) A second study was carried out, similar to the first, except that this time the analysis was in assessing the efficacy, if any, of the presently taught aryl alkanones in reducing UVA-induced delayed formation of CPDs (dCPDs).

[13] = test system: COL1A1; assay: DNA microarray gene expression, COL1A1; assay type: cell-based
From the text: as §1

[14] = test system: COL11A2; assay: DNA microarray gene expression, COL11A2; assay type: cell-based
From the text: as §1

[15] = test system: Fibroblasts; assay: UVA- and UVB-induced formation of immediate CPDs (iCPDs) in fibroblasts; assay type: cell-based; settings: UVA, 25 μg/ml
Protocol: Given the significance of CPDs in skin aging and damage, a study was undertaken to determine whether compounds of the present invention have the ability to directly protect the genome of skin cells from the mutagenic effect of UV light as evidenced by CPDs inhibition. The study was conducted in accordance with the method described by Mitchell et. al. [Mitchell, D L, The relative cytotoxicity of (6-4) photoproducts and cyclobutane dimers in mammalian cells. Photochem Photobiol, 48(1):51-57, 1988)] pursuant to which UVA- and UVB-induced formation of immediate CPDs (iCPDs) were determined.

[16] = test system: Melanocytes; assay: UVA-induced delayed formation of CPDs (dCPDs) in melanocytes; assay type: cell-based; settings: 25 μg/ml, UVA irradiation first then product added
Protocol: as §2

[17] = test system: MMP3; assay: PCR array gene expression, MMP3; assay type: cell-based
From the text: as §1

[18] = test system: human dermal fibroblasts; assay: UVA-induced mitochondrial damage measured by ATP production (Mitochondrial ToxGlo Assay); assay type: cell-based; settings: 24 h pre-incubation
Protocol: The study was conducted in accordance with the protocols of Berridge et al, (M V Berridge & A S Tan, Characterization of the cellular reduction of 3-(4,5-dimethylthiazol-2-yl)-2,5-diphenyltetrazolium bromide (MTT): subcellular localization, substrate dependence, and involvement of mitochondrial electron transport in MTT reduction, Arch. Biochem. Biophys. 303:474-482, 1993) and Voigt (W Voigt, Sulforhodamine B assay and chemosensitivity, Methods Mol Med, 110:39-48, 2005). Cellular metabolism is determined using the MTT assay to measure the activity of mitochondrial dehydrogenases, such as succinate dehydrogenase, which are implicated in the respiratory electron transport chain in mitochondria [M V Berridge & Tan Biochem Biophys, 303:474-482, 1993]. Additionally, the samples were subject to the Mitochondrial ToxGlo Assay (Promega Technical Manual, G8000 and G8001), which is a cell-based assay method that has been developed to quantify potential mitochondrial dysfunction as a result of xenobiotic exposure, using a sequential-addition, multiplexed chemistry.
Table 8 presents the result on the effect of UVA radiation on cell metabolism 3 hours after irradiation. As indicated, Compound 1 improves cell metabolism, even at a very low use concentration. Table 9 presents the effect of 24 hour pre-incubation on UVA-induced mitochondrial damage measured by ATP production in human dermal fibroblasts. […] Finally. Table 10 presents the effect of 24 hour pre-incubation on UVA-induced plasma membrane disruption in human dermal fibroblasts. As indicated, Compound 1 almost completely reversed plasma membrane disruption, again at a very low use concentration.

[19] = test system: FMOD; assay: DNA microarray gene expression, FMOD; assay type: cell-based
From the text: as §1

[20] = test system: POT1; assay: DNA microarray gene expression, POT1; assay type: cell-based
From the text: as §1

[21] = test system: TIMP4; assay: DNA microarray gene expression, TIMP4; assay type: cell-based
From the text: as §1

[22] = test system: COL14A1; assay: DNA microarray gene expression, COL14A1; assay type: cell-based
From the text: as §1

COc1cc(CC(C(C)=O)C(C)=O)ccc1O [Compound 1, Acetyl Zingerone]
Microarray, MMP3 gene expression [1]: −2.4 | PCR array, TIMP3 gene expression [2]: +2.4 | Microarray, FBLN1 gene expression [3]: +1.9 | IC50 [4]: 194 µM | Microarray, COL6A3 gene expression [5]: +1.8 | PCR array, COL14A1 gene expression [6]: +2.1 | Microarray, LAMA4 gene expression [7]: +1.7 | Microarray, ELN gene expression [8]: +1.7 | IC50 [9]: 2.14 mM | Microarray, COL3A1 gene expression [10]: +1.7 | Microarray, COL5A1 gene expression [11]: +4.1 | UVA/% Reduction in dCPDs vs. control, 0 hr. (Reduction in iCPDs) ([12]; 0 hr.): ^+0 hr.: ↓45% | UVA/% Reduction in dCPDs vs. control, 1 hr. ([12]; 1 hr.): 1 hr.: ↓20% | UVA/% Reduction in dCPDs vs. control, 2 hr. ([12]; 2 hr.): 2 hr.: ↓18% | Microarray, COL1A1 gene expression [13]: +1.6 | Microarray, COL11A2 gene expression [14]: +5.2 | UVA/% Reduction in iCPDs vs. Control [15]: 45% | UVA/% Reduction in dCPDs vs. control, 1 hr. ([16]; 1 hr.): 1 hr.: ↓70% | UVA/% Reduction in dCPDs vs. control, 2 hr. ([16]; 2 hr.): 2 hr.: ↓25% | UVA/% Reduction in dCPDs vs. control, 4 hr. ([16]; 4 hr.): 4 hr.: ~0% | PCR array, MMP3 gene expression [17]: −2.5 | ATP-related chemoluminescence (% Control) ([18]; 6.25 ug/ml): 94 % Control | Comments: % damage ([18]; 6.25 ug/ml): Only 6% | ATP-related chemoluminescence (% Control) ([18]; 12.5 ug/ml): 87 % Control | Comments: % damage ([18]; 12.5 ug/ml): Only 13% | Microarray, FMOD gene expression [19]: +1.6 | Microarray, POT1 gene expression [20]: +2.9 | Microarray, TIMP4 gene expression [21]: +1.6 | Microarray, COL14A1 gene expression [22]: +4.3
